From ChEMBL document CHEMBL1124763, “Nucleoside conjugates. 11. Synthesis and antitumor activity of 1-beta-D-arabinofuranosylcytosine and cytidine conjugates of thioether lipids” (1990)

Tests used:
[1] = system: Mus musculus; test: Range of survival days for antitumor activity against Ip implanted L1210 / 0 lymphoid leukemia in mice at a dose of 400 mg/kg per day after treatment 2;range is 12-26; type: functional; details: route intraperitoneal
[2] = system: Mus musculus; test: Survival time of treated mice for antitumor activity against Ip implanted L1210 / 0 lymphoid leukemia in mice at a dose of 100 mg/kg per day after treatment 1,5,9;25/8; details: route intraperitoneal
[3] = system: Mus musculus; test: Range of survival days for antitumor activity against Ip implanted L1210 / 0 lymphoid leukemia in mice at a dose of 200 mg/kg per day after treatment 1;range is 24->45; type: functional; details: route intraperitoneal
[4] = system: Mus musculus; test: Range of survival days for antitumor activity against Ip implanted L1210 / ara-C (II) lymphoid leukemia in mice at a dose of 300 mg/kg per day; type: functional; details: route intraperitoneal
[5] = system: Mus musculus; test: Range of survival days for antitumor activity against Ip implanted L1210 / 0 lymphoid leukemia in mice at a dose of 100 mg/kg per day after treatment 1,5,9;range is 18-29; type: functional; details: route intraperitoneal
[6] = system: Mus musculus; test: Range of survival days for antitumor activity against Ip implanted L1210 / 0 lymphoid leukemia in mice at a dose of 300 mg/kg per day after treatment 1;range is 18->45; type: functional; details: route intraperitoneal
[7] = system: Mus musculus; test: Increase of life span was determined against Ip implanted L1210 / 0 lymphoid leukemia in mice at a dose of 100 mg/kg per day after treatment 1,5,9; type: functional; details: L1210/0, ip, route intraperitoneal
[8] = system: Mus musculus; test: Increase of life span was determined against Ip implanted L1210 / 0 lymphoid leukemia in mice at a dose of 300 mg/kg per day after treatment 1,15; type: functional; details: L1210/0, ip, route intraperitoneal
[9] = system: Mus musculus; test: Range of survival days for antitumor activity against Ip implanted L1210 / 0 lymphoid leukemia in mice at a dose of 100 mg/kg per day after treatment 1,8,15,22;range is 16-32; type: functional; details: route intraperitoneal
[10] = system: Mus musculus; test: Median survival time for antitumor activity against Ip implanted L1210 / ara-C (I) lymphoid leukemia in mice at a dose of 133 mg/kg per day; details: route intraperitoneal
[11] = system: Mus musculus; test: Survival time treated/survival time tested (T/C) for antitumor activity against Ip implanted L1210 / ara-C (II) lymphoid leukemia in mice at a dose of 300 mg/kg per day; type: functional; details: route intraperitoneal
[12] = system: Mus musculus; test: Range of survival days for antitumor activity against Ip implanted L1210 / 0 lymphoid leukemia in mice at a dose of 400 mg/kg per day after treatment 5;range is 12-16; type: functional; details: route intraperitoneal
[13] = system: Mus musculus; test: Survival time of treated mice for antitumor activity against Ip implanted L1210 / 0 lymphoid leukemia in mice at a dose of 400 mg/kg per day after treatment 1;29.5/7; details: route intraperitoneal
[14] = system: Mus musculus; test: Median survival time for antitumor activity against Ip implanted L1210 / ara-C (I) lymphoid leukemia in mice at a dose of 80 mg/kg per day; details: route intraperitoneal
[15] = system: Mus musculus; test: Increase of life span was determined against Ip implanted L1210 / ara-C (I) lymphoid leukemia in mice at a dose of 133 mg/kg per day; type: functional; details: route intraperitoneal
[16] = system: Mus musculus; test: Survival time treated for antitumor activity against Ip implanted L1210 / 0 lymphoid leukemia in mice at a dose of 400 mg/kg per day after treatment -1;21.5/7; details: route intraperitoneal
[17] = system: Mus musculus; test: Range of survival days for antitumor activity against Ip implanted L1210 / ara-C (I) lymphoid leukemia in mice at a dose of 133 mg/kg per day; type: functional; details: route intraperitoneal
[18] = system: Mus musculus; test: Increase of life span was determined against Ip implanted L1210 / 0 lymphoid leukemia in mice at a dose of 400 mg/kg per day after treatment 1; type: functional; details: L1210/0, ip, route intraperitoneal
[19] = system: Mus musculus; test: Range of survival days for antitumor activity against Ip implanted L1210 / 0 lymphoid leukemia in mice at a dose of 400 mg/kg per day after treatment 0;range is 14->45; details: route intraperitoneal
[20] = system: Mus musculus; test: Survival time treated for antitumor activity against Ip implanted L1210 / 0 lymphoid leukemia in mice at a dose of 300 mg/kg per day after treatment 1;33/7; details: route intraperitoneal
[21] = system: Mus musculus; test: Range of survival days for antitumor activity against Ip implanted L1210 / 0 lymphoid leukemia in mice at a dose of 60 mg/kg per day after treatment 1-5;range is 27->45; type: functional; details: route intraperitoneal
[22] = system: Mus musculus; test: Survival time treated for antitumor activity against Ip implanted L1210 / 0 lymphoid leukemia in mice at a dose of 200 mg/kg per day after treatment 1;32/7; details: route intraperitoneal
[23] = system: Mus musculus; test: Range of survival days for antitumor activity against Ip implanted L1210 / 0 lymphoid leukemia in mice at a dose of 400 mg/kg per day after treatment 1;range is 9->45; type: functional; details: route intraperitoneal
[24] = system: Mus musculus; test: Increase of life span was determined against Ip implanted L1210 / 0 lymphoid leukemia in mice at a dose of 400 mg/kg per day after treatment -1; type: functional; details: L1210/0, ip, route intraperitoneal
[25] = system: Mus musculus; test: Increase of life span was determined against Ip implanted L1210 / ara-C (I) lymphoid leukemia in mice at a dose of 80 mg/kg per day; type: functional; details: route intraperitoneal
[26] = system: Mus musculus; test: Survival time treated for antitumor activity against Ip implanted L1210 / 0 lymphoid leukemia in mice at a dose of 200 mg/kg per day after treatment 5;15/7; details: route intraperitoneal
[27] = system: Mus musculus; test: Range of survival days for antitumor activity against Ip implanted L1210 / 0 lymphoid leukemia in mice at a dose of 200 mg/kg per day after treatment 5;range is 15-16; type: functional; details: route intraperitoneal
[28] = system: Mus musculus; test: Survival time treated for antitumor activity against Ip implanted L1210 / 0 lymphoid leukemia in mice at a dose of 200 mg/kg per day after treatment 1,8,15,22;24.5/7; details: route intraperitoneal
[29] = system: Mus musculus; test: Increase of life span was determined against Ip implanted L1210 / ara-C (II) lymphoid leukemia in mice at a dose of 300 mg/kg per day; type: functional; details: route intraperitoneal
[30] = system: Mus musculus; test: Survival time treated for antitumor activity against Ip implanted L1210 / 0 lymphoid leukemia in mice at a dose of 60 mg/kg per day after treatment 1-5;31/8; details: route intraperitoneal
[31] = system: Mus musculus; test: Survival time treated for antitumor activity against Ip implanted L1210 / 0 lymphoid leukemia in mice at a dose of 100 mg/kg per day after treatment 1,8,15,22;24/7; details: route intraperitoneal
[32] = system: Mus musculus; test: Increase of life span was determined against Ip implanted L1210 / ara-C (I) lymphoid leukemia in mice at a dose of 400 mg/kg per day; type: functional; details: route intraperitoneal
[33] = system: Mus musculus; test: Increase of life span was determined against Ip implanted L1210 / 0 lymphoid leukemia in mice at a dose of 200 mg/kg per day after treatment 5; type: functional; details: L1210/0, ip, route intraperitoneal
[34] = system: Mus musculus; test: Increase of life span was determined against Ip implanted L1210 / 0 lymphoid leukemia in mice at a dose of 200 mg/kg per day after treatment 1,8,15,22; type: functional; details: L1210/0, ip, route intraperitoneal

With `CCCCCCCCCCCCCCCCCCSCC(COP(=O)(O)OP(=O)(O)OC[C@H]1O[C@@H](n2ccc(N)nc2=O)[C@@H](O)[C@@H]1O)OC(=O)CCCCCCCCCCCCCCC` (mixture of isomers) the “Range of survival days” value [1] was 12, the survival time [2] was 25 days and the “Range of survival days” value [3] was greater than 24. The Range [4] was 8, the “Range of survival days” value [5] was 18 and the “Range of survival days” value [6] was greater than 18. The ILS at 100 mg/kg/day [7] was 213%, the ILS at 300 mg/kg/day [8] was 243% and the “Range of survival days” value [9] was 16. For the same compound, the median survival time [10] was greater than 45 days, the median survival time [11] was 9 days and the “Range of survival days” value [12] was 12. The survival time [13] was 29.5 days, the median survival time [14] was greater than 45 days and the ILS at 133 mg/kg/day [15] was greater than 350%. For the same compound, the survival time [16] was 21.5 days, the Range [17] was greater than 45 and the ILS at 400 mg/kg/day [18] was 321%. The “Range of survival days” value [19] was greater than 14, the survival time [20] was 33 days and the “Range of survival days” value [21] was greater than 27. For the same compound, the survival time [22] was 32 days, the “Range of survival days” value [23] was greater than 9 and the ILS at 400 mg/kg/day [24] was 207%. The ILS at 80 mg/kg/day [25] was greater than 350%, the survival time [26] was 15 days and the “Range of survival days” value [27] was 15. For the same compound, the survival time [28] was 24.5 days, the ILS at 300 mg/kg/day [29] was 0% and the survival time [30] was 31 days. The survival time [31] was 24 days, the ILS at 400 mg/kg/day [32] was greater than 350% and the ILS at 200 mg/kg/day [33] was 114%. For the same compound, the ILS at 200 mg/kg/day [34] was 250%.
